Data reported in patent US10526502B2, “Container coating system” (SWIMC LLC, priority 2012, dated 2020).

tested on: MCF-7, clone WS8, cells; assay: MCF-7 cell proliferation assay of estrogenic activity; format: cell-based, human; conditions: logarithmic (base 10) Relative Proliferative Effect vs 17-beta estradiol; values 'expected or measured'
Source text: The MCF-7 assay is a useful test for assessing whether a polyhydric phenol compound is appreciably non-estrogenic. The MCF-7 assay uses MCF-7, clone WS8, cells to measure whether and to what extent a substance induces cell proliferation via estrogen receptor (ER)-mediated pathways. The method is described in “Test Method Nomination: MCF-7 Cell Proliferation Assay of Estrogenic Activity” submitted for validation by CertiChem, Inc. to the National Toxicology Program Interagency Center for the Evaluation of Alternative Toxicological Methods (NICEATM) on Jan. 19, 2006 (available online at iccvam.niehs.nih.gov/methods/endocrine/endodocs/SubmDoc.pdf).
A brief summary of the method of the aforementioned MCF-7 assay is provided below. MCF-7, clone WS8, cells are maintained at 37° C. in RMPI (Roswell Park Memorial Institute medium) containing Phenol Red (e.g., GIBCO Catalog Number 11875119) and supplemented with the indicated additives for routine culture. An aliquot of cells maintained at 37° C. are grown for two days in phenol-free media containing 5% charcoal stripped fetal bovine serum in a 25 cm^2 tissue culture flask. Using a robotic dispenser such as an EPMOTION™ 5070 unit from Eppendorf AG, MCF-7 cells are then seeded at 400 cells per well in 0.2 ml of hormone-free culture medium in CORNING™ 96-well plates from Corning Life Sciences. The cells are adapted for 3 days in the hormone-free culture medium prior to adding the chemical to be assayed for estrogenic activity. The media containing the test chemical is replaced daily for 6 days. At the end of the 7 day exposure to the test chemical, the media is removed, the wells are washed once with 0.2 ml of HBSS (Hanks' Balanced Salt Solution), and then assayed to quantify amounts of DNA per well using a micro-plate modification of the Burton diphenylamine (DPA) assay, which is used to calculate the level of cell proliferation. […]
Table I shown below includes exemplary preferred polyhydric phenol compounds of Formula II and their expected or measured logarithmic RPE values in the MCF-7 assay.

SMILES	Log RPE
C[C@]12CC[C@@H]3c4ccc(O)cc4CC[C@H]3[C@@H]1CC[C@@H]2O [17β-estradiol]	2.00
O=S(=O)(c1ccc(O)cc1)c1ccc(O)cc1 [Bisphenol S]	−2
Oc1ccc(Cc2ccc(O)cc2)cc1 [Bisphenol F]	−2

target: T1, human estrogen receptor (Homo sapiens, UniProt P03372); assay: suitable in vitro assay whose results are directly correlated to the MCF-7 assay; conditions: in vitro assay correlated to MCF-7 through common reference compounds
T1 sequence (P03372 1-595): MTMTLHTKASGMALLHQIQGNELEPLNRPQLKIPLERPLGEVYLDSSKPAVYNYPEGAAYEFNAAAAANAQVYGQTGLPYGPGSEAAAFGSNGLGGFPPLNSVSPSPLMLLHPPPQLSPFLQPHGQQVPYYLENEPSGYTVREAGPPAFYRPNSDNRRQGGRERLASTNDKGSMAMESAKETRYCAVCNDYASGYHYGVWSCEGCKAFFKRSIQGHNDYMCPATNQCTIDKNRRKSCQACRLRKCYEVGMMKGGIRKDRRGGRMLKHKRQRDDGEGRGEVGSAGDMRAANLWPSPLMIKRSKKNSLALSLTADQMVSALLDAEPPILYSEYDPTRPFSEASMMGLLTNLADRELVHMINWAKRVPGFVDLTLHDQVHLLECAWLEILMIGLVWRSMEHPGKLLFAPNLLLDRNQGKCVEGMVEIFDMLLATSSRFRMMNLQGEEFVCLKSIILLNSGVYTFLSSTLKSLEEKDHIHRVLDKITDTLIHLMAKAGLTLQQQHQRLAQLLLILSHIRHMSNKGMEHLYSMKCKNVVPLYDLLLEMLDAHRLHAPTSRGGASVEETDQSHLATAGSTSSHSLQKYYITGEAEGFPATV

SMILES	estrogenic activity
CCCC(c1cc(C(C)(C)C)c(O)cc1C)c1cc(C(C)(C)C)c(O)cc1C [Structure 7, 4,4′-butylidenebis(2-t-butyl-5-methylphenol)]	do not exhibit appreciable estrogenic activity
CC(C)(C)c1cc(O)c(C(C)(C)C)cc1O [Structure 12, 2,5-di-t-butylhydroquinone]	do not exhibit appreciable estrogenic activity
CC(C)(C)c1cc(Cc2cc(C(C)(C)C)c(O)c(C(C)(C)C)c2)cc(C(C)(C)C)c1O [Structure 8, 4,4′-methylenebis(2,6-di-t-butylphenol)]	do not exhibit appreciable estrogenic activity
Cc1cc(Cc2cc(C)cc(C(C)(C)C)c2O)c(O)c(C(C)(C)C)c1 [Structure 9]	do not exhibit appreciable estrogenic activity
Cc1cc(Cc2cc(C)c(O)c(C)c2)cc(C)c1O [Structure 6, 4,4′-methylenebis(2,6-dimethylphenol)]	do not exhibit appreciable estrogenic activity

tested on: not listed separately; assay: suitable genotoxicity assays (e.g., Ames II assay); format: cell-based; conditions: not given
Method: A solution of 4,4′-methylenebis(2,6-di-t-butylphenol) (500 grams, 1.076 moles obtained from Albemarle Corporation) in anhydrous dimethylformamide (1.5 liters) was cooled to −10° C. and a solution of sodium tert-pentoxide (374 grams, 3.23 moles) in anhydrous dimethylformamide (1.5 liters) was added dropwise at −10 to −5° C. The mixture was stirred for 30 minutes at −10° C. Epichlorohydrin (1.9 liters, 24.2 moles) was added via dropping funnel at −10 to −5° C. The solution was allowed to warm up to room temperature and then was heated for 16 hours at a temperature of from 75 to 82° C. After cooling down to ambient temperature, the mixture was added to cold tap water (12 liters). Ethyl acetate (5 liters) was added to the mixture, which was stirred for 10 minutes and separated. The aqueous layer was extracted again with additional ethyl acetate (3 liters). The combined ethyl acetate extracts were washed twice with brine (2×6 liters), dried over anhydrous sodium sulfate (600 grams), and filtered. The solvent was removed under reduced pressure to give 887 grams of crude product as a purple oil. The crude product was dissolved in toluene (600 milliliters) and passed over a silica gel pad (1.4 kilograms), and eluted with a mixture of toluene and heptane (8 parts toluene to 2 parts heptane). The fractions containing product were combined and evaporated under reduced pressure. […]

SMILES	genotoxicity
CC(C)(C)c1cc(Cc2cc(C(C)(C)C)c(OCC3CO3)c(C(C)(C)C)c2)cc(C(C)(C)C)c1OCC1CO1 (stereo not shown) [Diglycidyl ether of 4,4′-methylenebis(2,6-di-tert-butylphenol)]	non-genotoxic
CCCC(c1cc(C(C)(C)C)c(OCC2CO2)cc1C)c1cc(C(C)(C)C)c(OCC2CO2)cc1C (stereo not shown) [Diglycidyl ether of 4,4′Butylidenebis(2-t-butyl-5-methylphenol))]	non-genotoxic
